{"source": "patent US11883526B2", "about": "(priority 2019, dated 2024)", "key": {"[1]": {"system": "subjects with MDD at imminent risk for suicide", "test": "MADRS total score, sustained response ([…]2001)", "format": "in vivo, human", "conditions": "84 mg; for MADRS total score change from baseline, Diff. of LS Means (minus Placebo): ANCOVA LOCF", "text": "Primary efficacy variable/Primary Time point: Change from baseline (Day 1, predose) to Day 1, 4-hours postdose in MADRS total score. The MADRS consists of 10 items that cover all of the core depressive symptoms, with each item scoring from 0 (item is not present or is normal) to 6 (severe or continuous presence of the symptom). A higher score represents a more severe condition.\nThe primary efficacy endpoint is the change in MADRS total score from baseline to Day 1: 4-hours postdose. MADRS total scores range from 0 to 60. […] As this is a phase 2a proof-of-concept study, statistical significance is based on a two-sided alpha level of 0.20. All p-values presented in this document are two-sided.\nSustained response is defined as at least 50% reduction from baseline in MADRS total score with onset on Day 1: 4 hours postdose that is maintained through the end of the double-blind phase (Day 25). Four subjects in the esketamine 84 mg group and 2 subjects in the placebo group had sustained response throughout the double-blind phase."}, "[2]": {"system": "patients with treatment-resistant depression (TRD)", "test": "CGI-S (Example 7)", "format": "in vivo, human", "description": "Overall illness severity was assessed on the Clinical Global Impression of Severity (CGI-S) scale (Guy, “ECDEU Assessment Manual for Psychopharmacology—Revised (DHEW Publ No ADM 76-338)”, Rockville, Md.: U.S. Department of Health, Education, and Welfare, Public Health Service, Alcohol, Drug Abuse, and Mental Health Administration, NIMH Psychopharmacology Research Branch, Division of Extramural Research Programs; 1976, pp 218-222). Participants assessed their severity of anxiety on the Generalized Anxiety Disorder 7-item (GADS-7) Scale (See, Tables 157 and 158). See, Spitzer, “A brief measure for assessing generalized anxiety disorder—the GAD-7”, Arch. Intern. Med., 2006, 166(10):1092-1097."}, "[3]": {"system": "patients with treatment-resistant depression (TRD)", "test": "BPRS positive symptom subscale (Example 7)", "design": "species or system human", "conditions": "in vivo", "description": "Adverse events were monitored throughout the study. Other safety assessments (i.e., laboratory tests, vital signs, physical examination) were performed at pre-specified time points. Vital signs, the Clinician Administered Dissociative States Scale (CADSS; Bremner, “Measurement of dissociative states with the clinician-administered dissociative states scale (CADSS)”, J. Traumatic Stress, 1998, 11(1):125-136), and the 4-item positive symptom subscale from the Brief Psychiatric Rating Scale (BPRS; Overall, “The Brief Psychiatric Rating Scale. Psychological Reports”, 1962, 10:799-812) were assessed pre-dose, at 40 minutes, and 2 hours post-dose."}, "[4]": {"text": "This example provides an LC-MS/MS method for the determination of ketamine and norketamine in sodium heparin human plasma using ketamine-d4 and norketamine-d4 as the respective internal standards (IS)."}, "[5]": {"test": "Pharmacokinetics of intranasal esketamine in healthy subjects (Example 9)", "conditions": "across the 3 treatment groups", "description": "This was an open-label, single-center study. The subjects were healthy Caucasian men and women, 20 to 55 years of age, inclusive. […] The solution consisted of:\nBlood samples (4 mL each) for determination of esketamine and noresketamine plasma concentrations were collected into the appropriate collection tube (e.g., Vacutainer®) at timepoints 0.00, 0.12, 0.20, 0.37, 0.53, 0.67, 0.83, 1.00, 1.25, 1.50, 2.00, 3.00, 4.00, 6.00, 9.00, 12.00, 18.00, and 24.00 h. The total amount of blood to be drawn for clinical laboratory tests and PK evaluations is approximately 327 mL.\nPlasma samples were analyzed for esketamine and noresketamine concentrations using the validated, specific and sensitive liquid chromatography coupled to tandem mass spectrometry (LC-MS/MS) achiral method of Example 8.\nSerial PK blood samples (4 mL each) were collected for a 24-hour period from each subject (Periods 1, 2, and 3). […] Statistical Methods 1.6.4.1. Sample Size\nThe following key parameters of esketamine and noresketamine in plasma were calculated using noncompartmental methods and actual sampling times: Cmax, tmax, AUClast, AUC∞, t1/2,λ, and λz."}, "[6]": {"system": "adult subjects with TRD", "conditions": "double-blind phase", "method": "The MOAA/S was used to measure treatment-emergent sedation, with correlation to levels of sedation defined by the American Society of Anesthesiologists (ASA) continuum. The MOAA/S scores range from 0=no response to painful stimulus (corresponds to ASA continuum for general anesthesia) to 5=readily responds to name spoken in normal tone (awake; corresponds to ASA continuum for minimal sedation).\nOn each intranasal dosing day, the MOAA/S was performed every 15 minutes from pre-dose to t=+1.5 hours post-dose. If the score was ≤3 at any time during the 1.5 hours post-dose interval, the MOAA/S was performed every 5 minutes until a score of 4 is reached (at which point a frequency of every 15 minutes can be resumed until t=+1.5 hours post dose). […] For subjects with a score of 4, the assessment was repeated every 15 minutes. […]\nThe Modified Observer's Assessment of Alertness/Sedation (MOAA/S) was used to measure treatment-emergent sedation with correlation to levels of sedation defined by the American Society of Anesthesiologists (ASA) continuum. The MOAA/S scores ranged from 0 (No response to painful stimulus; corresponds to ASA continuum for general anesthesia) to 5 (Readily responds to name spoken in normal tone [awake]; corresponding to ASA continuum for minimal sedation)."}}}
{"compound": "CN[C@]1(c2ccccc2Cl)CCCCC1=O", "note": "[esketamine, (S)-2-(2-chlorophenyl)-2-(methylamino)cyclohexanone]", "values": [{"measurement": "subjects with sustained response throughout the double-blind phase", "setting": "[1]; ≥50% MADRS reduction from Day 1 4 h through Day 25", "result": "Four"}, {"measurement": "MADRS total score change from baseline, Diff. of LS Means (minus Placebo)", "setting": "[1]; Day 1(DB): 4 H, ITT", "result": "−5.3"}, {"measurement": "MADRS total score change from baseline, Diff. of LS Means (minus Placebo)", "setting": "[1]; Day 2(DB), ITT", "result": "−7.2"}, {"measurement": "MADRS total score change from baseline, Diff. of LS Means (minus Placebo)", "setting": "[1]; End Point(DB), ITT", "result": "−4.5"}, {"measurement": "Day 25 sustained response (MADRS) No: no. of subjects", "setting": "[1]; ITT", "result": 30}, {"measurement": "Withdrawn from double-blind phase: Lack of Efficacy, percent of subjects", "setting": "[1]; all randomized analysis set", "result": "(2.8%)"}, {"measurement": "Withdrawn from double-blind phase: Lack of Efficacy, number of subjects", "setting": "[1]; all randomized analysis set, N = 36", "result": 1}, {"measurement": "Day 25 sustained response (MADRS) Yes: no. of subjects", "setting": "[1]; at least 50 percent reduction from Day 1 through Day 25, ITT", "result": 4}, {"measurement": "CGI-S change from baseline, Median Change (Range)", "setting": "[2]; Period 1 (first day to day 8), 28 mg", "result": "−1.0 (−2, 1)"}, {"measurement": "CGI-S change from baseline, Median Change (Range)", "setting": "[2]; Period 1 (first day to day 8), 56 mg", "result": "−1.0 (−3, 0)"}, {"measurement": "CGI-S change from baseline, Median Change (Range)", "setting": "[2]; Period 1 (first day to day 8), 84 mg", "result": "−0.5 (−4, 0)"}, {"measurement": "CGI-S at end point, Median (Range)", "setting": "[2]; Period 1, 28 mg", "result": "4.0 (3, 5)"}, {"measurement": "CGI-S at end point, Median (Range)", "setting": "[2]; Period 1, 56 mg", "result": "4.0 (1, 5)"}, {"measurement": "CGI-S at end point, Median (Range)", "setting": "[2]; Period 1, 84 mg", "result": "4.0 (1, 6)"}, {"measurement": "CGI-S change from baseline, Median Change (Range)", "setting": "[2]; Period 2 (first day to day 8 of period), 28 mg", "result": "−1.0 (−1, 0)"}, {"measurement": "CGI-S change from baseline, Median Change (Range)", "setting": "[2]; Period 2 (first day to day 8 of period), 56 mg", "result": "−1.0 (−2, 0)"}, {"measurement": "CGI-S change from baseline, Median Change (Range)", "setting": "[2]; Period 2 (first day to day 8 of period), 84 mg", "result": "−1.0 (−2, 0)"}, {"measurement": "CGI-S at end point, Median (Range)", "setting": "[2]; Period 2, 28 mg", "result": "4.0 (3, 5)"}, {"measurement": "CGI-S at end point, Median (Range)", "setting": "[2]; Period 2, 56 mg", "result": "5.0 (4, 6)"}, {"measurement": "CGI-S at end point, Median (Range)", "setting": "[2]; Period 2, 84 mg", "result": "4.0 (3, 5)"}, {"measurement": "symptoms suggestive of psychosis (BPRS-positive assessment)", "setting": "[3]", "result": "No participant manifested symptoms suggestive of psychosis"}, {"measurement": "QC sample freeze/thaw stability", "setting": "[4]; freeze (−20° C.)/thaw (room temperature)", "result": "3 freeze (−20° C.)/thaw (room temperature) cycles"}, {"measurement": "QC sample long-term storage stability", "setting": "[4]; human plasma QC sample at −20° C.", "result": 707, "unit": "days at −20 °C"}, {"measurement": "QC sample bench-top stability", "setting": "[4]; human plasma QC sample, room temperature", "result": 18, "unit": "hours at room temperature"}, {"measurement": "variability of AUC (AUClast and AUC∞)", "setting": "[5]", "result": "25.0% to 30.4"}, {"measurement": "variability of Cmax (percent coefficient of variation)", "setting": "[5]", "result": "35.7% to 36.7"}, {"measurement": "sedation (MOAA/S) resolved by", "setting": "[6]", "result": "≤ 1.5", "unit": "hours postdose"}]}
